Results from patent US20250282770A1, “BIOLUMINESCENT PROBES TO TRACK STEM CELLS IN VIVO” (THE BOARD OF TRUSTEES OF THE UNIVERSITY OF ILLINOIS, priority 2024, published 2025).

Tests used:
[1] = system: intracellular levels of NO; test: Intracellular NO levels in 4T1-Luc cells with BL660NO probe; type: cell-based, murine; settings: 30 minutes
Description: FIG. 14A-D. a) 4T1-Luc cells administered BL660NO (NO-responsive bioluminescent probe; 39 μM) after incubation with DEA-NONOate (50 μM) for 30 minutes. b) Quantified data from a. c) 4T1-Luc cells administered BL660NO (20 μM) after incubation with L-NMMA (1 mM) for 30 minutes. d) Quantified data from c. Statistical analysis was performed using two-tailed Student's t-test with Welch's correction (α=0.05), *ρ<0.05.

[2] = system: ALDH1A1 activity in 4T1 cells; test: Influence of interferon-gamma on ALDH1A1 activity in 4T1 cells using AlDeLuc; type: cell-based, murine; settings: INF-γ 26.8 ng/mL, 12 hours; AlDeLuc 50 μM
Description: Influence of Interferon-gamma (INF-γ) on ALDH1A1 activity in 4T1 Cells Using AlDeLuc. 4T1 cells were cultured in T75 culture flasks. After two days, cells had become ˜90% confluent. An aliquot of RPMI 1640 was removed (26.8 μL) and the flasks were then treated with INF-γ (26.8 μL of […] stock in PBS, 26.8 ng/mL final conc.) or vehicle (26.8 μL PBS). After 12 hours, the solutions were aspirated, washed with PBS, and resuspended in fresh RPMI 1640 media (9 mL). AlDeLuc was added to each flask ([…], 5% v/v DMSO:PBS) for a final concentration of 0.5% DMSO per flask. After 60 minutes this solution was aspirated, washed with fresh PBS, and detached from the culture flasks. The cells were then transferred to a 15 mL centrifuge tube and pelleted at 1000 rpm for 5 minutes at room temp. The cells were resuspended in PBS along with 10% protease inhibitor solution (1 protease inhibitor mini tablet per 10 mL of PBS, Pierce, Thermo Fisher Scientific) and sonicated on ice for 2.5 minutes (pulse 01, 01, 40%). The cell debris was removed via centrifugation and the supernatant was plated (95 μL/well) into a 96-well plate (n=4 for each condition). Each well was treated with luciferase (5 μL, 1 mg/mL) and immediately imaged using the IVIS imaging system in open mode. ROIs were drawn around each well and the signal intensity was quantified using the Living Image Analysis software.

[3] = system: ALDH1A1 activity in 4T1 cells; test: Influence of L-NMMA on ALDH1A1 activity in 4T1 cells using AlDeLuc; type: cell-based, murine; settings: L-NMMA 1 mM; AlDeLuc 50 μM
Description: Influence of L-NMMA on ALDH1A1 activity in 4T1 Cells Using AlDeLuc. 4T1 cells were cultured in T75 culture flasks. After two days, cells had become ˜90% confluent. The media was aspirated and 9 mL of fresh media was added. The flasks were then treated with L-NMMA (1 mM, cell culture water) or vehicle (cell culture water). After incubation for 60 minutes, the solutions were aspirated, washed with PBS, and resuspended in fresh RPMI 1640 media (9 mL). AlDeLuc was added to each flask (50 M, 5% v/v DMSO:PBS) for a final concentration of 0.5% DMSO per flask. After 60 minutes this solution was aspirated, washed with fresh PBS, and detached from the culture flasks. The cells were then transferred to a 15 mL centrifuge tube and pelleted at 1000 rpm for 5 minutes at room temp. The cells were resuspended in PBS along with 10% protease inhibitor solution (1 protease inhibitor mini tablet per 10 mL of PBS, Pierce, Thermo Fisher Scientific) and sonicated on ice for 2.5 minutes (pulse 01, 01, 40%). The cell debris was removed via centrifugation and the supernatant was plated (95 L/well) into a 96-well plate (n=4 for each condition). Each well was treated with luciferase (5 μL, 1 mg/mL) and immediately imaged using the IVIS imaging system in open mode. ROIs were drawn around each well and the signal intensity was quantified using the Living Image Analysis software.

iNOS = test: Immunohistochemical analysis of excised 4T1-Luc tumors; type: in vivo, BALB/c mice; settings: L-NMMA 50 mg/kg versus vehicle; high-fat diet
Source text: Diet-Induced Inflammation Modulates ALDH1A1 Activity in a Murine Model of Breast Cancer. Finally, to examine how NO influences ALDH1A1 activity in vivo we placed BALB/c mice (female, 5-7 weeks old) on a high-fat diet for 40 weeks to induce an inflammatory response through elevated NO production. This period consists of a ˜20-week priming period prior to inoculation of the animals with 4T1-Luc cells at the mammary fat pad. At this point, the mice were randomized into two groups. The treatment group was administered L-NMMA (50 mg/kg), whereas the control group received water via oral gavage for 20 days. The day after the final treatment, mice from both conditions were treated systemically with AlDeLuc, and the bioluminescence was monitored (FIG. 5e). […] At the completion of the diet study, animals were sacrificed, and their tumors were excised for further immunohistochemical analysis. Specifically, we determined that iNOS expression in tumors treated with L-NMMA was reduced. […] That is, reducing the levels of NO has the effect of increasing ALDH1A1 activity (as determined with AlDeLuc), as well as overall protein expression levels (FIG. 5h).

ALDH1A1 [4] = test: as above; type: in vivo, BALB/c mice; settings: L-NMMA 50 mg/kg versus vehicle; high-fat diet; opposite to reduced iNOS
Description: (§1) Finally, to examine how NO influences ALDH1A1 activity in vivo we placed BALB/c mice (female, 5-7 weeks old) on a high-fat diet for 40 weeks to induce an inflammatory response through elevated NO production. This period consists of a ˜20-week priming period prior to inoculation of the animals with 4T1-Luc cells at the mammary fat pad. At this point, the mice were randomized into two groups. The treatment group was administered L-NMMA (50 mg/kg), whereas the control group received water via oral gavage for 20 days. The day after the final treatment, mice from both conditions were treated systemically with AlDeLuc, and the bioluminescence was monitored (FIG. 5e). […] At the completion of the diet study, animals were sacrificed, and their tumors were excised for further immunohistochemical analysis.

ALDH1A1 activity = test: High-fat diet inflammatory model, orthotopic 4T1-Luc tumors, AlDeLuc imaging after L-NMMA; type: in vivo, BALB/c mice; settings: L-NMMA 50 mg/kg oral gavage 20 days, AlDeLuc 0.55 mg/kg
Description: as §1
Generation of an Orthotopic 4T1-Luc Breast Cancer Model for Diet Studies. Female BALB/c mice (˜6 weeks old) were inoculated with 4T1-Luc cells (50 μL of 1×10^5 cells in 1:1 v/v serum-free RPMI 1640 media and Matrigel) via subcutaneous injections into the mammary fat pad. Tumor volumes were measured using the caliper method every three days. Body weight was measured daily over the course of the experiment.

[5] = system: ALDH1A1 activity in 4T1 cells; test: Effect of nitric oxide (DETA NONOate) on ALDH1A1 activity in 4T1 cells using AlDeLuc; type: cell-based, murine; settings: DETA NONOate 50 μM, 2-day treatment; AlDeLuc 2 μM
Description: Exploring the Effect of Nitric Oxide on ALDH1A1 activity in 4T1 Cells Using AlDeLuc. 4T1 cells were cultured in T75 flasks, and once they reached ˜30% confluency (1 day), the media was removed and replaced with fresh RPMI 1640 media supplemented with either DETA NONOate (50 μM) or vehicle (media). After 24 hours, the media was aspirated, and the cells were treated once more with RPMI 1640 media containing either DETA NONOate (50 μM) or vehicle (media). After […], the suspension was removed and cells were treated with AlDeLuc (2 μM, final concentration of 0.01% DMSO). After 60 minutes the AlDeLuc solution was aspirated, washed with fresh PBS, and detached from the culture flasks. The cells were then transferred to a 15 mL centrifuge tube and pelleted at 1000 rpm for 5 minutes at room temp. The cells were resuspended in PBS along with 10% protease inhibitor solution (1 protease inhibitor mini tablet per 10 mL of PBS, Pierce, Thermo Fisher Scientific) and sonicated on ice for 2.5 minutes (pulse 01, 01, 40%). The cell debris was removed via centrifugation and the supernatant was plated (95 μL/well) into a 96-well plate (n=4 for each condition). Each well was treated with luciferase (5 μL, 1 mg/mL) and immediately imaged using the IVIS imaging system in open mode. ROIs were drawn around each well and the signal intensity was quantified using the Living Image Analysis software.

ALDH1A1 [6] = target: T1, ALDH1A1 (Mus musculus, UniProt P24549); test: DEAB inhibition of AlDeLuc activation in 4T1 cells; type: cell-based, murine; set-up: host or cells: 4T1 murine mammary carcinoma cells; settings: DEAB 500 μM; AlDeLuc 100 μM; 4T1 lysates
T1 sequence (P24549 1-501): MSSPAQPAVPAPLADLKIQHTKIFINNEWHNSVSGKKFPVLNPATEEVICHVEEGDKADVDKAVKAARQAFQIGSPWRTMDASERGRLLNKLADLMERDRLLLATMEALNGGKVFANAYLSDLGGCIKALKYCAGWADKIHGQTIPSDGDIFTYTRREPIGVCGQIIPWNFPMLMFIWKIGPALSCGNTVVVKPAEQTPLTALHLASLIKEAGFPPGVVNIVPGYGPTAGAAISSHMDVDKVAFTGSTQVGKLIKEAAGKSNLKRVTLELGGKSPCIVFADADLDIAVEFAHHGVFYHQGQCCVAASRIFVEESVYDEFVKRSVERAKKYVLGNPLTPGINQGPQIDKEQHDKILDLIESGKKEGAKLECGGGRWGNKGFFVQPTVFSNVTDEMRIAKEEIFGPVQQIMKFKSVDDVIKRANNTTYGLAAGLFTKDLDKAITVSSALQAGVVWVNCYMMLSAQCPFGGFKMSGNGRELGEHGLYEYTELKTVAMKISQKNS
Description: Validation of ALDH-Mediated Activation of AlDeLuc in Murine Breast Cancer Cells. 4T1 cells were cultured in T75 culture flasks. After two days, cells had become ˜90% confluent. An aliquot of RPMI 1640 media (1 mL) was removed from each flask and replaced with either DEAB ([…], 0.5% DMSO) or vehicle (0.5% DMSO). After incubation for one hour, the solutions were aspirated, washed with PBS, and resuspended in fresh RPMI 1640 media (9 mL). Each flask was then incubated with the AlDeLuc (100 μM) and DEAB (500 μM) or AlDeLuc (100 μM) and vehicle (DMSO), each with a final concentration of 1% DMSO. After 60 minutes, this solution was aspirated, washed with fresh PBS, and detached from the culture flasks. The cells were then transferred to a 15 mL centrifuge tube and pelleted at 1000 rpm for 5 minutes at room temp. The cells were resuspended in PBS along with 10% protease inhibitor solution (1 protease inhibitor mini tablet per 10 mL of PBS, Pierce, Thermo Fisher Scientific) and sonicated on ice for 2.5 minutes (pulse 01, 01, 40%). The cell debris was removed via centrifugation and the supernatant was plated ([…]) into a 96-well plate (n=4 for each condition). […] ROIs were drawn around each well and the signal intensity was quantified using the Living Image Analysis software.

ALDH1A1 [7] = target: T1, ALDH1A1; test: Validation of ALDH-mediated activation of AlDeLuc in heterotopic breast cancer model via DEAB inhibition; type: in vivo, BALB/c mice; set-up: from tissue; host or cells: 4T1-Luc tumours in BALB/c mice
Description: Validation of ALDH-mediated Activation of AlDeLuc in a Heterotopic Breast Cancer Model via DEAB Inhibition. BALB/c mice bearing 4T1-Luc tumors were anesthetized using isoflurane (1-3% for maintenance; up to 5% for induction) in oxygen from a precision vaporizer. After testing to ensure animals are fully under anesthesia, each mouse was administered AlDeLuc via retro-orbital injection (0.55 mg/kg, 1:19 v/v DMSO:PBS). Images were captured using the IVIS imaging system 40 minutes after injection. Bioluminescence light was captured in open mode (no filters were applied). ROIs were drawn around each tumor and summed for each animal. The signal intensity was quantified using the Living Image Analysis Software. After two days, the same animals were anesthetized and co-administered a solution of AlDeLuc and DEAB (0.55 mg/kg and 93 mg/kg respectively, 1:19 v/v DMSO:PBS). After the allotted 40 minutes, the images were captured using the IVIS imaging system. Bioluminescence was collected in open mode (no filters were applied). ROIS were drawn around each tumor and summed for each animal. The signal intensity was quantified using the Living Image Analysis Software.

## CCN(CC)/[N+]([O-])=N/O.CCNCC [DEA NONOate]
[1]; DEA NONOate 50 μM
  intracellular levels of NO: increasing

## IFN-γ: interferon gamma, shown to stimulate NO production via inducible nitric oxide synthase
[2]
  bioluminescence signal lower relative to vehicle-treated control cells: 3.2 fold

## CNC(=N)NCCC[C@H](N)C(=O)O [L-NMMA]
[3]
  bioluminescence higher compared to vehicle-treated cells: 2.4 fold
iNOS
  iNOS expression in tumors: reduced
ALDH1A1 [4]
  ALDH1A1 expression in tumors: opposite trend
ALDH1A1 activity
  enhancement in total luminescent counts compared to control group: 5.9 fold
ALDH1A1 activity; 40 min
  total luminescent counts: 9.9±2.7×10^4
[1]; L-NMMA 1 mM
  intracellular levels of NO: decreasing

## NCCN(CCN)/[N+]([O-])=N/O [DETA NONOate]
[5]
  bioluminescence decreased: 1.3 fold

## CCN(CC)c1ccc(C=O)cc1 [DEAB, diethylaminobenzaldehyde]
ALDH1A1 [6]
  diminished bioluminescent signal relative to uninhibited cells: approximately 5 fold
ALDH1A1 [7]; DEAB 93 mg/kg, AlDeLuc 0.55 mg/kg
  difference in total luminescent counts, AlDeLuc alone versus DEAB co-treated: 2.8 fold
ALDH1A1 [7]; co-treated DEAB 93 mg/kg and AlDeLuc 0.55 mg/kg, 40 min
  total luminescent counts: 0.78±0.28×10^4
